melting point | Compound
63 to 73 °C | Cn1c(-c2ccc(-n3ccnc3)cc2)cnc1[C@H](Cc1ccccn1)N(C=O)c1cc2cc(Cl)ccc2o1 [Example 49, (1S)-(5-Chlorobenzo[b]furan-2-yl)-N-[1-[5-[4-(1-imidazolyl)-phenyl]-1-methylimidazol-2-yl]-2-(2-pyridyl)ethyl]formamide]
190 to 200 °C | CCn1c(-c2ccc(-n3ccnc3)cc2)cnc1[C@H](Cc1ccccn1)N(C=O)c1cc2cc([N+](=O)[O-])ccc2o1.Cl.Cl.Cl
182 to 184 °C | Cn1c(-c2ccc(-n3ccnc3)cc2)cnc1[C@H](Cc1ccccn1)N(C=O)c1cc2cccc(Cl)c2o1 [Example 68, (1S)-(7-Chlorobenzo[b]furan-2-yl)-N-[1-[5-[4-(1-imidazolyl)phenyl]-1-methylimidazol-2-yl]-2-(2-pyridyl)ethyl]formamide]
190 to 193 °C | Cn1c(-c2ccc(-n3ccnc3)cc2)cnc1[C@H](Cc1ccccn1)N(C=O)c1cc2ccccc2s1 [Compound (c), (1S)-(benzo[b]thiophen-2-yl)-N-[1-[5-[4-(1-imidazolyl) -phenyl]-1-methylimidazol-2-yl]-2-(2-pyridyl)ethyl]formamide]
255 to 260 °C (dec.) | CCn1c(-c2ccc(-n3ccnc3)cc2)cnc1[C@H](Cc1ccncc1)N(C=O)c1cc2ccccc2[nH]1 [Compound (e), (1S)-N-[1-[1-ethyl-5-[4-(1-imidazolyl)phenyl]imidazol-2-yl]-2-(4-pyridyl)ethyl](indol-2-yl)formamide]
175 to 180 °C | Cn1c(-c2ccc(-c3ccccn3)cc2)cnc1[C@H](Cc1ccccn1)N(C=O)c1cc2cc(Cl)ccc2o1 [Example 36, (1S)-(5-Chlorobenzo[b]furan-2-yl)-N-[1-[1-methyl-5-[4-(2-pyridyl)-phenyl]imidazol-2-yl]-2-(2-pyridyl)ethyl]formamide]
197 to 199 °C | Cn1c(-c2ccc(-n3ccnc3)cc2)cnc1[C@H](Cc1ccccn1)N(C=O)c1cc2cc(Br)ccc2o1 [Example 46, (1S)-(5-Bromobenzo[b]furan-2-yl)-N-[1-[5-[4-(1-imidazolyl)-phenyl]-1-methylimidazol-2-yl]-2-(2-pyridyl)ethyl]formamide]
207 to 211 °C | Cc1nccn1-c1ccc(-c2cnc([C@H](Cc3ccccn3)N(C=O)c3cc4ccccc4[nH]3)n2C)cc1 [Example 14, (1S)-(Indol-2-yl)-N-[1-[1-methyl-5-[4-(2-methylimidazol-1-yl)-phenyl]imidazol-2-yl]-2-(2-pyridyl)ethyl]formamide]
199 to 201 °C | Cn1c(-c2ccc([N+](=O)[O-])cc2)cnc1[C@H](Cc1ccccn1)N(C=O)c1cc2cc(Cl)ccc2o1 [Example 12, (1S)-(5-Chlorobenzo[b]furan-2-yl)-N-[1-[1-methyl-5-(4-nitrophenyl)imidazol-2-yl]-2-(2-pyridyl)ethyl]formamide]
173 to 174 °C | Cn1c(-c2ccc(N3CCOCC3)cc2)cnc1[C@H](Cc1ccccn1)N(C=O)c1cc2cc(Br)ccc2o1 [Example 2, (1S)-(5-Bromobenzo[b]furan-2-yl)-N-[1-[1-methyl-5-(4-morpholinophenyl)imidazol-2-yl]-2-(2-pyridyl)ethyl]formamide]
180.5 to 181.5 °C | Cn1c(-c2ccc(-c3ccccc3)cc2)cnc1[C@H](Cc1ccccn1)N(C=O)c1cc2cc(Br)ccc2o1 [Compound (b), (1S)-N-[1-[5-(4-biphenylyl)-1-methylimidazol-2-yl]-2-(2-pyridyl)ethyl](5-bromobenzo[b]furan-2-yl)formamide]
150 to 152 °C | COc1ccc2oc(N(C=O)[C@@H](Cc3ccccn3)c3ncc(-c4ccc(-c5ccccc5)cc4)n3C)cc2c1 [Example 9, (1S)-N-[1-[5-(4-Biphenylyl)-1-methylimidazol-2-yl]-2-(2-pyridyl)-ethyl](5-methoxybenzo[b]furan-2-yl)formamide]
173 to 175 °C | CCCn1c(-c2ccc(-n3ccnc3)cc2)cnc1[C@H](Cc1ccccn1)N(C=O)c1cc2cc(Cl)ccc2o1 [Example 48, (1S)-(5-Chlorobenzo[b]furan-2-yl)-N-[1-[5-[4-(1-imidazolyl)-phenyl]-1-propylimidazol-2-yl]-2-(2-pyridyl)ethyl]formamide]
80 to 84 °C | CCn1c(-c2ccc(-n3ccnc3)cc2)cnc1[C@H](Cc1ccccn1)N(C=O)c1cc2cc(F)ccc2o1 [Example 55, (1S)-N-[1-[1-Ethyl-5-[4-(1-imidazolyl)phenyl]imidazol-2-yl]-2-(2-pyridyl)ethyl](5-fluorobenzo[b]furan-2-yl)formamide]
171 to 174 °C | Cn1c(-c2ccc(-c3ccccc3)cc2)cnc1[C@H](Cc1ccccn1)N(C=O)c1cc2cc(Cl)ccc2o1 [Example 10, (1S)-N-[1-[5-(4-Biphenylyl)-1-methylimidazol-2-yl]-2-(2-pyridyl)-ethyl](5-chlorobenzo[b]furan-2-yl)formamide]
130 to 132 °C | Cn1c(-c2ccc(N3CCOCC3)cc2)cnc1[C@H](Cc1ccccn1)N(C=O)c1cc2cc(F)ccc2o1 [Example 4, (1S)-(5-Fluorobenzo[b]furan-2-yl)-N-[1-[1-methyl-5-(4-morpholinophenyl)imidazol-2-yl]-2-(2-pyridyl)ethyl]formamide]

melting point | Compound
103 to 104 °C | Cn1c(-c2ccc([N+](=O)[O-])cc2)cnc1[C@H](Cc1ccccn1)N(C=O)c1cc2ccccc2o1 [Example 64, (1S)-(Benzo[b]furan-2-yl)-N-[1-[1-methyl-5-(4-nitrophenyl)imidazol-2-yl]-2-(2-pyridyl)ethyl]formamide]
134 to 135 °C | Cn1c(-c2ccc(N3CCOCC3)c(F)c2)cnc1[C@H](Cc1ccccn1)N(C=O)c1cc2cc(Cl)ccc2o1 [Example 19, (1S)-(5-Chlorobenzo[b]furan-2-yl)-N-[1-[5-(3-fluoro-4-morpholinophenyl)-1-methylimidazol-2-yl]-2-(2-pyridyl)ethyl]formamide]
92 to 98 °C | CCCn1c(-c2ccc(-n3ccnc3)cc2)cnc1[C@H](Cc1ccccn1)N(C=O)c1cc2cc(C(F)(F)F)ccc2o1 [Example 30, (1S)-N-[1-[5-[4-(1-Imidazolyl)phenyl]-1-propylimidazol-2-yl]-2-(2-pyridyl)ethyl][5-(trifluoromethyl)benzo[b]furan-2-yl]formamide]
180 to 182 °C | Cn1c(-c2ccc(-n3ccnc3)cc2)cnc1[C@H](Cc1ccccn1)N(C=O)c1cc2cc(F)ccc2o1 [Example 54, (1S)-(5-Fluorobenzo[b]furan-2-yl)-N-[1-[5-[4-(1-imidazolyl)-phenyl]-1-methylimidazol-2-yl]-2-(2-pyridyl)ethyl]formamide]
168 to 171 °C | Cn1c(-c2ccc(-c3cccnc3)cc2)cnc1[C@H](Cc1ccccn1)N(C=O)c1cc2cc(Br)ccc2o1 [Example 35, (1S)-(5-Bromobenzo[b]furan-2-yl)-N-[1-[1-methyl-5-[4-(3-pyridyl)-phenyl]imidazol-2-yl]-2-(2-pyridyl)ethyl]formamide]
77 to 81 °C | CCCn1c(-c2ccc(-n3ccnc3)cc2)cnc1[C@H](Cc1ccccn1)N(C=O)c1cc2cc(F)ccc2o1 [Example 56, (1S)-(5-Fluorobenzo[b]furan-2-yl)-N-[1-[5-[4-(1-imidazolyl)-phenyl]-1-propylimidazol-2-yl]-2-(2-pyridyl)ethyl]formamide]
122 to 124 °C | COc1ccc2oc(N(C=O)[C@@H](Cc3ccccn3)c3ncc(-c4ccc(N5CCOCC5)cc4)n3C)cc2c1 [Example 3, (1S)-(5-Methoxybenzo[b]furan-2-yl)-N-[1-[1-methyl-5-(4-morpholinophenyl)imidazol-2-yl]-2-(2-pyridyl)ethyl]formamide]
70 to 74 °C | Cn1c(-c2cccs2)cnc1[C@H](Cc1ccccn1)N(C=O)c1cc2cc(Cl)ccc2o1 [Example 20, (1S)-(5-Chlorobenzo[b]furan-2-yl)-N-[1-[1-methyl-5-(2-thienyl)-imidazol-2-yl]-2-(2-pyridyl)ethyl]formamide]
221 to 223 °C | Cn1c(-c2ccc(-n3ccnc3)cc2)cnc1[C@H](Cc1ccccn1)N(C=O)c1cc2cc([N+](=O)[O-])ccc2o1 [Example 50, (1S)-N-[1-[5-[4-(1-Imidazolyl)phenyl]-1-methylimidazol-2-yl]-2-(2-pyridyl)ethyl](5-nitrobenzo[b]furan-2-yl)formamide]
190 to 195 °C | CCn1c(-c2ccc(-n3ccnc3)cc2)cnc1[C@H](Cc1ccccn1)N(C=O)c1cc2cc(OC)ccc2o1.Cl.Cl.Cl
194 to 197 °C | Cn1c(-c2ccc(-n3ccnc3)cc2)cnc1[C@H](Cc1ccccn1)N(C=O)c1cc2cc(C=O)ccc2o1 [Example 24, (1S)-(5-Formylbenzo[b]furan-2-yl)-N-[1-[5-[4-(1-imidazolyl)-phenyl]-1-methylimidazol-2-yl]-2-(2-pyridyl)ethyl]formamide]
167 to 171 °C | Cc1nccn1-c1ccc(-c2cnc([C@H](Cc3ccccn3)N(C=O)c3cc4ccccc4o3)n2C)cc1 [Example 15, (1S)-(Benzo[b]furan-2-yl)-N-[1-[1-methyl-5-[4-(2-methylimidazol-1-yl)phenyl]imidazol-2-yl]-2-(2-pyridyl)ethyl]formamide]
156 to 157 °C | Cc1nc([C@H](Cc2ccccn2)N(C=O)c2cc3ccccc3[nH]2)n(C)c1-c1ccc(-n2ccnc2)cc1 [Example 23, (1S)-N-[1-[5-[4-(1-Imidazolyl)phenyl]-1,4-dimethylimidazol-2-yl]-2-(2-pyridyl)ethyl](indol-2-yl)formamide]
96 to 99 °C | Cn1c(-c2ccc(N3CCOCC3)cc2)cnc1[C@H](Cc1ccccn1)N(C=O)c1nc2cc(Cl)ccc2s1 [Example 6, (1S)-(5-Chlorobenzothiazol-2-yl)-N-[1-[1-methyl-5-(4-morpholinophenyl)imidazol-2-yl]-2-(2-pyridyl)ethyl]formamide]
210 to 211 °C | COc1ccc2oc(N(C=O)[C@@H](Cc3ccccn3)c3ncc(-c4ccc([N+](=O)[O-])cc4)n3C)cc2c1 [Compound (f), (1S)-(5-methoxybenzo[b]furan-2-yl)-N-[1-[1-methyl-5-(4-nitrophenyl)imidazol-2-yl]-2-(2-pyridyl)ethyl]formamide]

From patent publication US20020132809A1, “Heterocyclic carboxamide derivatives as inhibitors of nitric oxide production” (Fujisawa Pharmaceutical Co. Ltd., priority 1998, published 2002)
